The values that follow come from PubChem BioAssay (NCI).

Structures are written as SMILES.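 Following 48 hours of exposure in 96-well plates, responses at five concentrations were used to interpolate endpoints linearly. GI50 = concentration required for 50% inhibition of growth. TGI is the concentration that stops growth completely.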 Where only a bound is given, the exact number is not on record here.

Test in all cases: inhibition of tumour cell growth, NCI panel, 48 h
Experiment [1] deals with CAKI-1 renal.
For experiment [2], the system named is K-562 leukemia.
Experiment [3] has as its system OVCAR-4 ovarian.
The test system of experiment [4] is SK-MEL-2 melanoma.
For experiment [5], the system named is SK-MEL-28 melanoma.
The test system of experiment [6] is SN12C renal.
The test system of experiment [7] is SNB-75 CNS.
In experiment [8] the test system is UACC-257 melanoma.
The subject of experiment [9] is UACC-62 melanoma.
Experiment [10] has as its system UO-31 renal.

Consider `COC(=O)Nc1nc2ccc(C(=O)c3ccc(N(C)C4COC4)cc3)cc2[nH]1`, for which the GI50 was 0.435 µM in experiment [1]; 0.333 µM in experiment [2]; 2.85 µM in experiment [3]; 0.593 µM in experiment [4]; over 100 µM in experiment [5]; 0.561 µM in [6]. The GI50 in experiment [7] is 0.227 µM; in experiment [8], over 100 µM; in experiment [9] it was 0.38 µM; in experiment [10] it was 0.883 µM. The TGI in experiment [1], in experiment [2], in [3], in [4], in experiment [5] and in [6] was over 100 µM throughout. Also, the TGI in [7], in experiment [8], in [9] and in experiment [10] was over 100 µM each time.
For the compound `C[C@@H]1Cc2c([nH]c3ccccc23)[C@@H](c2c(F)cc(NC3CN(CCCF)C3)cc2F)N1CC(F)(F)CO`, the GI50 is 3.66 µM in [1]; 3.24 µM in experiment [2]; 9.86 µM in [3]; 4.37 µM in [4]; 2.45 µM in [5]; 9.69 µM in experiment [6]. In addition, the GI50 was 4.92 µM in [7], 1.97 µM in [8], 2.35 µM in experiment [9] and 3.7 µM in experiment [10]. For the same compound, the TGI in [1] is 15.7 µM; in experiment [2], 11.8 µM; in experiment [3], 21.9 µM; in experiment [4], 16.5 µM; in experiment [5], 6.49 µM; in [6], 23.1 µM. Also, the TGI in experiment [7] is 20.5 µM; in experiment [8], 4.51 µM; in experiment [9], 5.77 µM; in experiment [10] it was 16.5 µM.
As to `CCn1cc(-c2ccnc3[nH]ccc23)c(-c2cccc(NC(=O)Nc3ccc(OCc4ccccc4)cc3)c2)n1`, the GI50 in experiment [1] is 6.71 µM; in experiment [2] it was 4.72 µM; in [3] it was over 23.4 µM; in experiment [4], 8.14 µM; in experiment [5] it was 18.1 µM; in experiment [6], over 25 µM. For the same compound, the GI50 in experiment [7] is 4.35 µM; in [8], over 24.1 µM; in experiment [9], 5.89 µM; in [10], 15 µM. The TGI in [1], in experiment [2], in experiment [3], in experiment [4], in experiment [5] and in [6] was over 25 µM in each case. The TGI in experiment [7], in [8], in experiment [9] and in [10] was over 25 µM throughout.
